Columns and labels:
Test in all cases: KINOMEscan competition binding
Settings in all cases: compound 0.1 µM
IKBKB (human) = IKBKB (human) (UniProt O14920)
[1] = test system: KIT (human), P10721 [A829P]
LATS2 (human) = LATS2 (human) (UniProt Q9NRM7)
[2] = test system: PIK3CA (human), P42336 [H1047Y]
CDKL5 (human) = CDKL5 (human) (UniProt O76039)
PIK3C2B (human) = PIK3C2B (human) (UniProt O00750)
STK24 (human) = STK24 (human) (UniProt Q9Y6E0)
ALK (human) = ALK (human) (UniProt Q9UM73)
MAP2K1 (human) = MAP2K1 (human) (UniProt Q02750)
MYLK2 (human) = MYLK2 (human) (UniProt Q9H1R3)
LATS1 (human) = LATS1 (human) (UniProt O95835)
SGK2 (human) = SGK2 (human) (UniProt Q9HBY8)
DYRK2 (human) = DYRK2 (human) (UniProt Q92630)
OXSR1 (human) = OXSR1 (human) (UniProt O95747)
FRK (human) = FRK (human) (UniProt P42685)
GRK4 (human) = GRK4 (human) (UniProt P32298)
SGK110 (human) = SGK110 (human) (UniProt P0C264)
[3] = test system: PIK3CA (human), P42336 [E545A]
MAPK3 (human) = MAPK3 (human) (UniProt P27361)
ACVRL1 (human) = ACVRL1 (human) (UniProt P37023)
CAMKK2 (human) = CAMKK2 (human) (UniProt Q96RR4)
GSG2 (human) = GSG2 (human) (UniProt Q8TF76)
MAP3K14 (human) = MAP3K14 (human) (UniProt Q99558)
PAK1 (human) = PAK1 (human) (UniProt Q13153)
CDKL3 (human) = CDKL3 (human) (UniProt Q8IVW4)
PAK3 (human) = PAK3 (human) (UniProt O75914)
EPHB3 (human) = EPHB3 (human) (UniProt P54753)
CIT (human) = CIT (human) (UniProt O14578)
TAOK2 (human) = TAOK2 (human) (UniProt Q9UL54)
MAP4K2 (human) = MAP4K2 (human) (UniProt Q12851)
NEK4 (human) = NEK4 (human) (UniProt P51957)
EPHB4 (human) = EPHB4 (human) (UniProt P54760)
NUAK2 (human) = NUAK2 (human) (UniProt Q9H093)
CDC42BPG (human) = CDC42BPG (human) (UniProt Q6DT37)
IGF1R (human) = IGF1R (human) (UniProt P08069)
PDGFRA (human) = PDGFRA (human) (UniProt P16234)
[4] = test system: EGFR (human), P00533 [G719S]
DCLK3 (human) = DCLK3 (human) (UniProt Q9C098)
ABL1 (human) = ABL1 (human) (UniProt P00519)
MAP2K4 (human) = MAP2K4 (human) (UniProt P45985)
MAP2K4 (human), sequence (P45985 whole entry, looked up): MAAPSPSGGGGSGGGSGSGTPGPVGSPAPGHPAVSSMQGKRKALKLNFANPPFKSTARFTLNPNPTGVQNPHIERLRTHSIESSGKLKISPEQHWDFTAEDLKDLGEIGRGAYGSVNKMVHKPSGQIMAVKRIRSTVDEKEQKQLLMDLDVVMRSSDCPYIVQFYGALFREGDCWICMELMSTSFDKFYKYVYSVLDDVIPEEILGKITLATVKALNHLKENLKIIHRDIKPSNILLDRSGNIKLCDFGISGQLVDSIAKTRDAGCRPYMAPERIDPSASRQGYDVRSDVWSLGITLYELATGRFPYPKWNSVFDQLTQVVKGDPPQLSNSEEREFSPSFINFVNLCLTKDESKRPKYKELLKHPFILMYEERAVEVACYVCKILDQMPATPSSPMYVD

CDKL3 (human), sequence (Q8IVW4 whole entry, looked up): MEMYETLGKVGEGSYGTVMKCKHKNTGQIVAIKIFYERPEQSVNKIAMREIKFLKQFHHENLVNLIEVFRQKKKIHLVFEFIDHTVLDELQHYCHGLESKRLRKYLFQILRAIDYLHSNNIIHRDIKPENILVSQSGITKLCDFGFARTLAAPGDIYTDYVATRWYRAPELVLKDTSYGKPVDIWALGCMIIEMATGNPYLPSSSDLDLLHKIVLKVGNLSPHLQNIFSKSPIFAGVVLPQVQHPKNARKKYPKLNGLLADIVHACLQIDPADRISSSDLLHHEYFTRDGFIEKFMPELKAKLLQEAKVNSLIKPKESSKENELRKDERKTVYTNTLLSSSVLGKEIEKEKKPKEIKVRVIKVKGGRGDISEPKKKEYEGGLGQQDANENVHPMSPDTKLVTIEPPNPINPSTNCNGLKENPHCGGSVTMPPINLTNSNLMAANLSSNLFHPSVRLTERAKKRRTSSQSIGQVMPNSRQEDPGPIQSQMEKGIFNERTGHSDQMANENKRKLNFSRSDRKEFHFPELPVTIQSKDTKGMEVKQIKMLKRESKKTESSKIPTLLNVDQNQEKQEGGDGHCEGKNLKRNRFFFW
TAOK2 (human), sequence (Q9UL54 whole entry, looked up): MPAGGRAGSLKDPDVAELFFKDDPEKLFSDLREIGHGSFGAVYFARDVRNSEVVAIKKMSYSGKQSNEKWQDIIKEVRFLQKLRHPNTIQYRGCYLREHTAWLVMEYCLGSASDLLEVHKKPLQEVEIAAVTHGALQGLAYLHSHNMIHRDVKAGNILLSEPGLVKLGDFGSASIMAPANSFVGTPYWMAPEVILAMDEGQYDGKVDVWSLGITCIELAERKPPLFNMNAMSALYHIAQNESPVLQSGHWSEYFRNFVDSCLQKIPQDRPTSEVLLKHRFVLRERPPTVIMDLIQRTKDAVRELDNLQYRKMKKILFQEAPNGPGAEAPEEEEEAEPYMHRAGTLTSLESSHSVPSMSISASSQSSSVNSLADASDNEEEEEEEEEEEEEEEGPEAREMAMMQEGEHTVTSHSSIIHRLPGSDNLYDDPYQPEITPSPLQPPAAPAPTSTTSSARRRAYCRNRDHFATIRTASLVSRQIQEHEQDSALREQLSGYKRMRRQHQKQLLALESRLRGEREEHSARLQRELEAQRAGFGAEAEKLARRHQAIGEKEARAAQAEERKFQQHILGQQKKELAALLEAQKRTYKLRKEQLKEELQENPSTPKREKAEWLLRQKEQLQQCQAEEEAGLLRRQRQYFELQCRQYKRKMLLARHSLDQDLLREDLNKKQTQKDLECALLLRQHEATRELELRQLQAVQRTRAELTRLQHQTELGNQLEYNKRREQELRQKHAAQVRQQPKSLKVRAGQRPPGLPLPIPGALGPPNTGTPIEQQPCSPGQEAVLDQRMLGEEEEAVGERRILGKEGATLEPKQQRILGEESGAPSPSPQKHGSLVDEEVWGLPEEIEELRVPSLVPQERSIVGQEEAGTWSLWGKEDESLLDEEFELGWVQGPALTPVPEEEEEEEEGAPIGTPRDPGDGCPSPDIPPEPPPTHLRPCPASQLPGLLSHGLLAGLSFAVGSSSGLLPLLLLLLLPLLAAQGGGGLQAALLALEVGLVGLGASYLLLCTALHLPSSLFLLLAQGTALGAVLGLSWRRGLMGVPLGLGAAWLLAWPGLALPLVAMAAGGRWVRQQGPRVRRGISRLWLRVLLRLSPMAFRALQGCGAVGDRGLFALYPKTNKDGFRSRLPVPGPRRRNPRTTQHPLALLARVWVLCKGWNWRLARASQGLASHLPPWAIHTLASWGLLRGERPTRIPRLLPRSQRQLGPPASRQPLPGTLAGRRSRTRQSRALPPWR
GSG2 (human), sequence (Q8TF76 whole entry, looked up): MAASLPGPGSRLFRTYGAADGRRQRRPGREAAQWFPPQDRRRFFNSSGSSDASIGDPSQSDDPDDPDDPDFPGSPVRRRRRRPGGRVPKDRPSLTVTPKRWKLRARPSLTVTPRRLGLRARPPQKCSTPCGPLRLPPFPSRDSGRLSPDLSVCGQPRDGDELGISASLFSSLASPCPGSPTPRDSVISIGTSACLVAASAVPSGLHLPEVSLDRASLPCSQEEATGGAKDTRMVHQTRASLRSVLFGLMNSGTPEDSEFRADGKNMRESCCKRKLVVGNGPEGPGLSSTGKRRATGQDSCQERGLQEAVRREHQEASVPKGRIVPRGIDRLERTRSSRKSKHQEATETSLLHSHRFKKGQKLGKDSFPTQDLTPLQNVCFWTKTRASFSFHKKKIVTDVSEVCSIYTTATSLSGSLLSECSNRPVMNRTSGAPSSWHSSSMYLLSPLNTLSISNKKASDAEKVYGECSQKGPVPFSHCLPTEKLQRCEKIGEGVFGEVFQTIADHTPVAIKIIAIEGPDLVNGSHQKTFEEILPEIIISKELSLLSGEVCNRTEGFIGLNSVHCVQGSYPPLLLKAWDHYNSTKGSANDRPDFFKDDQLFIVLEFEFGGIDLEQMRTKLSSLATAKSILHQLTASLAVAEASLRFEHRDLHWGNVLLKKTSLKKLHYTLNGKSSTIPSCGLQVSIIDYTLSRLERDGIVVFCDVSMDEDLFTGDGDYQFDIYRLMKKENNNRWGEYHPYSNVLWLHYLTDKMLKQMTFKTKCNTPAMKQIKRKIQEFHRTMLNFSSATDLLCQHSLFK
EPHB3 (human), sequence (P54753 whole entry, looked up): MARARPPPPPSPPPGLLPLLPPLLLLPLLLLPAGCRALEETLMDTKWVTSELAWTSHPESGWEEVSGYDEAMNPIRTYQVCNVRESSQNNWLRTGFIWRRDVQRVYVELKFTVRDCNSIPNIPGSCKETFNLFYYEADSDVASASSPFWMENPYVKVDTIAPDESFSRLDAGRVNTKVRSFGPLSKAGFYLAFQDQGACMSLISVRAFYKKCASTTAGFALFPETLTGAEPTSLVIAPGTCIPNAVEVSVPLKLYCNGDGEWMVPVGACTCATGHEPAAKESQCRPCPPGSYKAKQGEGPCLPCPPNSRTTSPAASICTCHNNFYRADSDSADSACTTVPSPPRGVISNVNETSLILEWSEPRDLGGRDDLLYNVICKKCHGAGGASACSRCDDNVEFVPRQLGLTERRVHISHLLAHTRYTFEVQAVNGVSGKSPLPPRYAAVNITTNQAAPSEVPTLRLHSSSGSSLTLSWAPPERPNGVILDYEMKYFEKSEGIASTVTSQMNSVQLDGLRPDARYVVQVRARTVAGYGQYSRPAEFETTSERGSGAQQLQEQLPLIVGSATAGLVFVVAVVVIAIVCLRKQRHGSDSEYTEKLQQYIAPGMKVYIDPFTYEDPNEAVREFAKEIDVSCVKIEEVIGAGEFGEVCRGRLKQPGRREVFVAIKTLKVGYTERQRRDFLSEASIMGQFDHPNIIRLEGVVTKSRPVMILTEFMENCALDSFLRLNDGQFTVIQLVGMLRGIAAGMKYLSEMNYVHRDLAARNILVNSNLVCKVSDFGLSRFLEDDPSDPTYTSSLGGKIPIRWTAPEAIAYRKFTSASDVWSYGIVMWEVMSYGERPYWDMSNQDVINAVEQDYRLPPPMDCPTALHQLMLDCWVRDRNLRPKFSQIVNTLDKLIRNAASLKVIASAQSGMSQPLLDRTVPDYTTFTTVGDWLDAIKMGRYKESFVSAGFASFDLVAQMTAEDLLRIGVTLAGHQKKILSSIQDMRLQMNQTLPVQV
KIT (human), P10721 [A829P], sequence (P10721 whole entry A829P, looked up): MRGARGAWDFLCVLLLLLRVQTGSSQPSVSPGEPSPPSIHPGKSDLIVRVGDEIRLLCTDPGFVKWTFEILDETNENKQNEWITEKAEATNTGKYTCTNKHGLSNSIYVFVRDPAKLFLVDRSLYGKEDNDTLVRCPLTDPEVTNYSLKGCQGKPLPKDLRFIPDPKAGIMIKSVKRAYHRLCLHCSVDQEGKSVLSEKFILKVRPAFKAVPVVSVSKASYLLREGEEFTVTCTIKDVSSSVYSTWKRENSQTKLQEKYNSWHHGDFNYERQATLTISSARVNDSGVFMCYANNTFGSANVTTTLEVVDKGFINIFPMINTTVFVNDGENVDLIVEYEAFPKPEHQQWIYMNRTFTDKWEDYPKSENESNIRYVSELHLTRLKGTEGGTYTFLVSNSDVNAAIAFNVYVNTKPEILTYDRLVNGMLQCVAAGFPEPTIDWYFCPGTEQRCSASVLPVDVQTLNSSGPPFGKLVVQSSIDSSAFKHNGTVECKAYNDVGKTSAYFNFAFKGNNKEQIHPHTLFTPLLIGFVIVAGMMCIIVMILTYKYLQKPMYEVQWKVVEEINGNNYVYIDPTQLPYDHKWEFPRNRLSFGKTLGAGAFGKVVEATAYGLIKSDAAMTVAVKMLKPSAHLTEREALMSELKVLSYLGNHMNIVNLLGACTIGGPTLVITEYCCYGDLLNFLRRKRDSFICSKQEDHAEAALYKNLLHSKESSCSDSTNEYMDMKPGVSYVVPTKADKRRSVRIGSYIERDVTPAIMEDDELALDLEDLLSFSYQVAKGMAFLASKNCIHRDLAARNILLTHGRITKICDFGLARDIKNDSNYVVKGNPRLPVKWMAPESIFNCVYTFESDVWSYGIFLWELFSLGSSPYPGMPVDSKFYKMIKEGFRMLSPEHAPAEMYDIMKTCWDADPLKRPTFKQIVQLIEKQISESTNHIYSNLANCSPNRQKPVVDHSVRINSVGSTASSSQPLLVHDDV

## CCc1ccc(C(=O)Nc2cc(CN3CCN(C)CC3)cc(C(F)(F)F)c2)cc1C#Cc1cnc2ccnn2c1
IKBKB (human)
  kinase still bound, per cent of control: 97%
[1]
  kinase still bound, per cent of control: 69%
LATS2 (human)
  kinase still bound, per cent of control: 100%
[2]
  kinase still bound, per cent of control: 76%
CDKL5 (human)
  kinase still bound, per cent of control: 100%
PIK3C2B (human)
  kinase still bound, per cent of control: 100%
STK24 (human)
  kinase still bound, per cent of control: 100%
ALK (human)
  kinase still bound, per cent of control: 100%
MAP2K1 (human)
  kinase still bound, per cent of control: 100%
MYLK2 (human)
  kinase still bound, per cent of control: 100%
LATS1 (human)
  kinase still bound, per cent of control: 100%
SGK2 (human)
  kinase still bound, per cent of control: 94%
DYRK2 (human)
  kinase still bound, per cent of control: 86%
OXSR1 (human)
  kinase still bound, per cent of control: 100%
FRK (human)
  kinase still bound, per cent of control: 47%
GRK4 (human)
  kinase still bound, per cent of control: 97%
SGK110 (human)
  kinase still bound, per cent of control: 100%
[3]
  kinase still bound, per cent of control: 100%
MAPK3 (human)
  kinase still bound, per cent of control: 100%
ACVRL1 (human)
  kinase still bound, per cent of control: 100%
CAMKK2 (human)
  kinase still bound, per cent of control: 73%
GSG2 (human)
  kinase still bound, per cent of control: 75%
MAP3K14 (human)
  kinase still bound, per cent of control: 85%
PAK1 (human)
  kinase still bound, per cent of control: 75%
CDKL3 (human)
  kinase still bound, per cent of control: 56%
PAK3 (human)
  kinase still bound, per cent of control: 41%
EPHB3 (human)
  kinase still bound, per cent of control: 94%
CIT (human)
  kinase still bound, per cent of control: 92%
TAOK2 (human)
  kinase still bound, per cent of control: 100%
MAP4K2 (human)
  kinase still bound, per cent of control: 100%
NEK4 (human)
  kinase still bound, per cent of control: 100%
EPHB4 (human)
  kinase still bound, per cent of control: 100%
NUAK2 (human)
  kinase still bound, per cent of control: 100%
CDC42BPG (human)
  kinase still bound, per cent of control: 100%
IGF1R (human)
  kinase still bound, per cent of control: 100%
PDGFRA (human)
  kinase still bound, per cent of control: 79%
[4]
  kinase still bound, per cent of control: 100%
DCLK3 (human)
  kinase still bound, per cent of control: 100%
ABL1 (human)
  kinase still bound, per cent of control: 100%
MAP2K4 (human)
  kinase still bound, per cent of control: 100%

Source: the kinase profiling compilation of Christmann-Franck et al. (2016)
